In US4670469A, “Hydroxamic acid and pharmaceutical preparations containing the same” (VEB Arzneimittelwerk Dresden, priority 1983, dated 1987):
Read-outs that look alike come from different tables or passages of the source.

Key:
guinea pig lung strips = experiment: Arachidonic acid-induced spasm of isolated guinea pig lung strips; conditions: active substance 100 μM
Source text: They display in animal experimental tests on isolated lung strips from guinea pigs a pronounced antiasthmatic effect. The testing of the mentioned pharmacological characteristics follows according to the principles of measuring techniques known from the literature, which come into use in modified form (G. M. Drazen et al. G. Clin. Invest. 63 1 (1979); M. W. Schneider and G. M. Drazen Amer. Rev. Resp. Dis. 121 835 (1980); S. S. Yen and W. Kreutner, Agents Actions 10 274 (1980); S. S. Yen Prostaglandins 22, 183 (1981)).
The compounds of Formula I effect a significant restraint on arachidonic acid-induced bronchial constriction (1.5.10^-5 M arachidonic acid) in the guinea pig lung preparations (see, Example 6). Also with the addition of a cyclooxygenase inhibitor to the measuring system this effect was unaltered, and to some extent stronger, detectably. These experimental results permit without a doubt the conclusion that the compounds of Formula I involve inhibitors of the lipoxygerase pathway of arachidonic utilization, and the above described pharmacological effect is grounded upon this mechanism of activity.
(§1) The testing of the compounds for antiasthmatic activity follows on isolated lung strips and isolated tracheal rings from guinea pigs according to measuring methods known from the literature (supra) in modified form. The measurements follow in thermostatically controlled organ bath, isotonically using a contraction measuring arrangement with lift receiver, measuring coil, measuring amplifier (inductive measurement with the aid of a high frequency resonant circuit). The gasification follows with air. The suspension solution has the following composition: 39.46 g NaCl, 2.2 g KCl, 6.07 g Tris, 1.0 g CaCl2, 9.9 g glucose, 1.0 ml saturated MgCl2 -solution, 43 ml 1N HCl; pH 7.4.
(a) Activity on spasm of the guinea pig lung strips, induced by exogenous arachidonic acid.
The spasm is triggered by rising concentrations of arachidonic acid (concentrated solution in ethanol, stored in N2 -atmosphere) and is cumulatively measured. […] The active substance caused a highly significant displacement to the right of the Dose-Activity curves for arachidonic acid, visible by a clear elevation of the ED50 - and ED84 -values. The effect can be described through the following activity index: [formula] In an analogous manner, the index i84 is determined from the measured data.

guinea pig trachia = experiment: Carbachol-induced spasm of guinea pig trachea; conditions: Cavia porcellus; spasm triggered by 3.9 μM carbachol; read-out: active substance concentration at which strong to very strong dilatation was clearly determinable
Source text: as §1
(b) Activity on the carbachol-induced spasm of guinea pig trachia
The spasms are triggered by 3.9 μM carbachol.

[1] = target: T1, lipoxygenase from rabbit reticulocytes (Oryctolagus cuniculus, UniProt P12530); experiment: Inhibition of the activity of lipoxygenase from rabbit reticulocytes (oxygen consumption, Clark electrode); assay type: biochemical
T1 construct: The lipoxygenase from rabbit reticulocytes is obtained in electrophoretically and immunologically pure form; from tissue; host or cells: rabbit reticulocytes
T1 sequence (P12530 1-663): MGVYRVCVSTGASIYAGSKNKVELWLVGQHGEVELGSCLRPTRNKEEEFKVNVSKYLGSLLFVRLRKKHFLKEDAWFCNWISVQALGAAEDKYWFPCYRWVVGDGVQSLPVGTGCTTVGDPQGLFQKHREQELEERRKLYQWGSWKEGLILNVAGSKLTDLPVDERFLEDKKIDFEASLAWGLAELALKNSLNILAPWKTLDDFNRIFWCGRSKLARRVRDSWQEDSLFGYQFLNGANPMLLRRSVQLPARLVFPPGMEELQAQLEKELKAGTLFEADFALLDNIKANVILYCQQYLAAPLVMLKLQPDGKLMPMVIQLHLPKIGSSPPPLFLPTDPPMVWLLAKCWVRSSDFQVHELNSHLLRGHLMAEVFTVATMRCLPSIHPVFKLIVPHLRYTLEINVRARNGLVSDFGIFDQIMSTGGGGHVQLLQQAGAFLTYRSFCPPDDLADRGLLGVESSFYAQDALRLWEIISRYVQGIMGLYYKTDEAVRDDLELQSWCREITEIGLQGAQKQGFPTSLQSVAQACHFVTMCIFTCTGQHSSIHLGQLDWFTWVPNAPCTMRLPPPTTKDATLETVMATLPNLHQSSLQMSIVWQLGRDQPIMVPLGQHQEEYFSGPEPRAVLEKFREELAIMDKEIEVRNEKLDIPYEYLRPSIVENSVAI
Experimental: The lipoxygenase from rabbit reticulocytes was obtained in electrophoretically and immunologically pure form according to a technique known from the literature (S. M. Rapoport et al. Methods in Enzymology 71, 430 (1981)). The determination of lipoxygenase activity follows at 25° C. through the polarographic measurement of the oxygen consumption by means of Clark Electrode in a standardized system.
Through variation of the substance concentrations, the titration curves of the inhibition and therefrom the inhibition concentrations (I-value) of the compounds can be determined.
The testing of compounds for antiasthmatic, antiallergenic, inflammation-inhibiting and antithrombotic activity on the basis on the inhibition of the lipoxygenase reaction of the arachidonic acid cascade follows in a molecular/pharmacological test system. […] The lipoxygenase from rabbit reticulocytes is obtained in electrophoretically and immunologically pure form according to the techniques described in the literature (supra). The determination of the lipoxygenase activity follows at 25° C. through the polorographic measurement of oxygen consumption by means of a Clark-electrode in the following system: 0.1M potassiumphosphate, pH 7.4, with 0.2 percent sodium cholate and 0.53 mM linoleic acid. The enzyme concentration in the measurement preparation came to 25 nM. The compounds to be tested are dissolved in methylglycol (freshly distilled in a vacuum) and pre-incubated for 15 minutes at the measuring temperature in the absence of sodium cholate and linoleic acid. […] The enzyme reaction is started by the addition of sodium cholate and linoleic acid.

lipoxygenase from peas = experiment: Inhibition of lipoxygenase from peas; assay type: biochemical; conditions: read-out: I50
Experimental: The inhibition of thrombocyte aggregation is likewise ascribed to the inhibition of lipoxygenase in the cells. It has thus been shown that the arachidonate-lipoxygenase activity of a microsome-free lysate of human thrombocyte concentrates is inhibited to the extent of 100% by means of 0.25 mM salicylhydroxamic acid. Moreover, it has been shown that also a series of further lipoxygenases are inhibited by means of the here described hydroxamic acids. The lipoxygenase from soybeans reacts the most insensitive, i.e. it is inhibited by means of 1 mM salicylhydroxamic acid at pH 7.4 to an extent of 60% and by means of 0.4 mM 2-hydroxy-1-napthylhydroxamic acid to an extent of 54%. In contrast, for the lipoxygenase from peas which come closer in their characteristics to human lipoxygenase, the following I50 -values are provided: salicyl hydroxamic acid, 5 μM, 2-hydroxy-1-napthylhydroxamic acid, 2 μM, 2(2'-napthoxy)-acethydroxamic acid, 2 μM. Moreover it has been shown that the formation lipoxygenase products of arachidonic acid in in vitro cultivated aorta endothelial cells of calves is hindered through 0.1 mM 2-hydroxy-1-napthylhydroxamic acids.

IC50 ([1]; 25° C., pH 7.4, 0.53 mM linoleic acid, 15 min pre-incubation, read-out: I50) | IC84 ([1]; 25° C., pH 7.4, 0.53 mM linoleic acid, 15 min pre-incubation, read-out: I84) | SMILES | activity index i50 (displacement of arachidonic acid ED50) (guinea pig lung strips) | activity index i84 (displacement of arachidonic acid ED84) (guinea pig lung strips) | minimal effective concentration (guinea pig trachia) | IC50 (lipoxygenase from peas) | IC50 [1]
2.5 µM | 9 µM | O=C(COc1ccc2ccccc2c1)NO [2(2'-naphthoxy)-acethydroxamic acid] | 5.8 | 7.1 | 50 µM | 2 µM | –
– | – | O=C(NO)c1ccccc1O [salicylhydroxamic acid] | 1.9 | 8.5 | – | 5 µM | 20 µM
